Experimental findings from patent US10669268B2, “Bicyclic derivatives” (Hoffmann-La Roche Inc., priority 2012, dated 2020) are described below.

SMILES strings stand for the structures.

The test concerns the target ATX (human His-tagged) (Homo sapiens (Human), UniProt Q13822). Put plainly: Human ATX enzyme inhibition assay (fluorescence quenching, MR121 substrate). The format is biochemical. Conditions: 30 nM ATX, 1 μM MR121 substrate, 30° C., pH 8.0. Here is the method: Human ATX Enzyme Inhibition Assay
Assay working solutions were made as follows:
Assay buffer (50 mM Tris-HCl, 140 mM NaCl, 5 mM KCl, 1 mM CaCl2, 1 mM MgCl2, 0.01% Triton-X-100, pH 8.0;
MR121 substrate solution: MR121 substrate stock solution (800 μM MR121 substrate in DMSO), diluted to 2-5× final concentration in assay buffer.
10 μL of MR121 substrate solution was added (1 μM final concentration), mixed 30 times and then incubated for 15 minutes at 30° C.
Broadly, the IC50 is the concentration at which inhibition is half-maximal. `CC(C)(Cc1cccc(Cl)c1)C(=O)N1CC[C@@H]2CN(C(=O)c3ccc4[nH]nnc4c3)C[C@@H]2CC1` [Example 1.14, 1-((3aR,8aS)-2-(1H-benzo[d][1,2,3]triazole-5-carbonyl)octahydropyrrolo[3,4-d]azepin-6(7H)-yl)-3-(3-chlorophenyl)-2,2-dimethylpropan-1-one] displayed an IC50 of 810 nM. The compound `O=C(/C=C/c1ccc(OC(F)(F)F)c(F)c1)N1CC[C@@H]2CN(C(=O)c3ccc4[nH]nnc4c3)C[C@@H]2CC1` [Example 1.15, (E)-1-((3aR,8aS)-2-(1H-benzo[d][1,2,3]triazole-5-carbonyl)octahydropyrrolo[3,4-d]azepin-6(7H)-yl)-3-(3-fluoro-4-(trifluoromethoxy)phenyl)prop-2-en-1-one] showed a concentration for half-maximal inhibition (IC50) of 1 nM. Under `O=C(/C=C/c1ccc(OC(F)(F)F)cc1)N1CC[C@@H]2CN(C(=O)c3ccc4nonc4c3)C[C@@H]2CC1` [Example 1.17, (E)-1-[(3aS,8aR)-2-(benzo[c][1,2,5]oxadiazole-5-carbonyl)-octahydro-pyrrolo[3,4-d]azepin-6-yl]-3-(4-trifluoromethoxy-phenyl)-prop-2-en-1-one] stands 651 nM; under `Cc1cc(OC(F)(F)F)ccc1/C=C/C(=O)N1CC[C@@H]2CN(C(=O)c3ccc4[nH]nnc4c3)C[C@@H]2CC1` [Example 1.18, (E)-1-((3aR,8aS)-2-(1H-benzo[d][1,2,3]triazole-5-carbonyl)octahydropyrrolo[3,4-d]azepin-6(7H)-yl)-3-(2-methyl-4-(trifluoromethoxy)phenyl)prop-2-en-1-one], 10 nM; under `COc1ccc(/C=C/C(=O)N2CC[C@@H]3CN(C(=O)c4ccc5[nH]nnc5c4)C[C@@H]3CC2)cc1F` [Example 1.19, (E)-1-((3aR,8aS)-2-(1H-benzo[d][1,2,3]triazole-5-carbonyl)octahydropyrrolo[3,4-d]azepin-6(7H)-yl)-3-(3-fluoro-4-methoxyphenyl)prop-2-en-1-one], 12 nM. Then `O=C(/C=C/c1ccc(OC(F)(F)F)cc1)N1CC[C@@H]2CN(C(=O)[C@H]3CCc4[nH]nnc4C3)C[C@@H]2CC1` [Example 1.20, (E)-1-[(3aS,8aR)-2-((S)-4,5,6,7-tetrahydro-1H-benzotriazole-5-carbonyl)-octahydro-pyrrolo[3,4-d]azepin-6-yl]-3-(4-trifluoromethoxy-phenyl)-prop-2-en-1-one], with 83 nM; and `O=C(/C=C/c1ccc(OC(F)(F)F)cc1)N1CC[C@@H]2CN(C(=O)[C@@H]3CCc4[nH]nnc4C3)C[C@@H]2CC1` [Example 1.21, (E)-1-[(3aS,8aR)-2-((R)-4,5,6,7-tetrahydro-1H-benzotriazole-5-carbonyl)-octahydro-pyrrolo[3,4-d]azepin-6-yl]-3-(4-trifluoromethoxy-phenyl)-prop-2-en-1-one], with 5 nM; and `CC(C)c1ccccc1/C=C/C(=O)N1CC[C@@H]2CN(C(=O)c3ccc4[nH]nnc4c3)C[C@@H]2CC1` [Example 1.22, (E)-1-[(3aS,8aR)-2-(1H-benzotriazole-5-carbonyl)-octahydro-pyrrolo[3,4-d]azepin-6-yl]-3-(2-isopropyl-phenyl)-prop-2-en-1-one], with 9 nM. `O=C(/C=C/c1cc(Cl)cc(C(F)(F)F)c1)N1CC[C@@H]2CN(C(=O)c3ccc4[nH]nnc4c3)C[C@@H]2CC1` [Example 1.27, (E)-1-((3aR,8aS)-2-(1H-benzo[d][1,2,3]triazole-5-carbonyl)octahydropyrrolo[3,4-d]azepin-6(7H)-yl)-3-(3-chloro-5-(trifluoromethyl)phenyl)prop-2-en-1-one] returned an IC50 of 8 nM. Under `COc1ccc(/C=C/C(=O)N2CC[C@@H]3CN(C(=O)c4ccc5[nH]nnc5c4)C[C@@H]3CC2)c(C(F)(F)F)c1` [Example 1.28, (E)-1-((3aR,8aS)-2-(1H-benzo[d][1,2,3]triazole-5-carbonyl)octahydropyrrolo[3,4-d]azepin-6(7H)-yl)-3-(4-methoxy-2-(trifluoromethyl)phenyl)prop-2-en-1-one] stands 6 nM.

`O=C(/C=C/c1ccccc1C1CC1)N1CC[C@@H]2CN(C(=O)c3ccc4[nH]nnc4c3)C[C@@H]2CC1` [Example 1.29, (E)-1-((3aR,8aS)-2-(1H-benzo[d][1,2,3]triazole-5-carbonyl)octahydropyrrolo[3,4-d]azepin-6(7H)-yl)-3-(2-cyclopropylphenyl)prop-2-en-1-one] registered an IC50 of 8 nM. Then `O=C(COc1ccccc1OC(F)(F)F)N1CC[C@@H]2CN(C(=O)c3ccc4[nH]nnc4c3)C[C@@H]2CC1` [Example 1.32, 1-[(3aS,8aR)-2-(1H-benzotriazole-5-carbonyl)-octahydro-pyrrolo[3,4-d]azepin-6-yl]-2-(2-trifluoromethoxy-phenoxy)-ethanone], with 40 nM; and `Cc1cc(OCC(=O)N2CC[C@@H]3CN(C(=O)c4ccc5[nH]nnc5c4)C[C@@H]3CC2)c(C(C)C)cc1Cl` [Example 1.35, 1-[(3aS,8aR)-2-(1H-benzotriazole-5-carbonyl)-octahydro-pyrrolo[3,4-d]azepin-6-yl]-2-(4-chloro-2-isopropyl-5-methyl-phenoxy)-ethanone], with 10 nM; and `Cc1ccc(OCC(=O)N2CC[C@@H]3CN(C(=O)c4ccc5[nH]nnc5c4)C[C@@H]3CC2)c(C2CCN(C)C2)c1` (stereo partly drawn) [Example 1.36, 1-[(3aS,8aR)-2-(1H-benzotriazole-5-carbonyl)-octahydro-pyrrolo[3,4-d]azepin-6-yl]-2-[4-methyl-2-(1-methyl-pyrrolidin-3-yl)-phenoxy]-ethanone], with 7460 nM. Under `O=C(COc1ccc(C(F)(F)F)cc1Cl)N1CC[C@@H]2CN(C(=O)c3ccc4[nH]nnc4c3)C[C@@H]2CC1` [Example 1.38, 1-((3aR,8aS)-2-(1H-benzo[d][1,2,3]triazole-5-carbonyl)octahydropyrrolo[3,4-d]azepin-6(7H)-yl)-2-(2-chloro-4-(trifluoromethyl)phenoxy)ethanone] stands 10 nM. The compound `CC(C)c1cc2c(cc1OCC(=O)N1CC[C@@H]3CN(C(=O)c4ccc5[nH]nnc5c4)C[C@@H]3CC1)C(C)(C)CC2` [Example 1.39, 1-((3aR,8aS)-2-(1H-benzo[d][1,2,3]triazole-5-carbonyl)octahydropyrrolo[3,4-d]azepin-6(7H)-yl)-2-(6-isopropyl-3,3-dimethyl-2,3-dihydro-1H-inden-5-yloxy)ethanone] showed an IC50 of 7 nM. Regarding `O=C(COc1cc(Cl)ccc1C(F)(F)F)N1CC[C@@H]2CN(C(=O)c3ccc4[nH]nnc4c3)C[C@@H]2CC1` [Example 1.41, 1-((3aR,8aS)-2-(1H-benzo[d][1,2,3]triazole-5-carbonyl)octahydropyrrolo[3,4-d]azepin-6(7H)-yl)-2-(5-chloro-2-(trifluoromethyl)phenoxy)ethanone], the midpoint of inhibition, the IC50, lay at 2 nM.

In turn, `COc1ccc(OCC(=O)N2CC[C@@H]3CN(C(=O)c4ccc5[nH]nnc5c4)C[C@@H]3CC2)c(C(C)(C)C)c1` [Example 1.42, 1-[(3aS,8aR)-2-(1H-benzotriazole-5-carbonyl)-1,3,3a,4,5,7,8,8a-octahydropyrrolo[3,4-d]azepin-6-yl]-2-(2-tert-butyl-4-methoxyphenoxy)ethanone] returned an IC50 of 7 nM.
